Source: the COVID Moonshot data (paper PMC11187573), “Identification of SARS-CoV-2 Mpro inhibitors through deep reinforcement learning for de novo drug design and computational chemistry approaches” (RSC Medicinal Chemistry, 2024)
pIC50: −log10 of the molar value.

Assays:
[1] = biological target: SARS-CoV-2 Main Protease (SARS-CoV-2) (UniProt P0DTD1)
[2] = biological target: SARS-CoV-2 Main Protease (SARS-CoV-2) (UniProt P0DTD1); remark: listed apart in the source
Procedure: Compounds were seeded into assay-ready plates (Greiner 384 low volume, cat 784900) using an Echo 555 acoustic dispenser, and DMSO was back-filled for a uniform concentration in assay plates (DMSO concentration maximum 1%) Screening assays were performed in duplicate at 20µM and 50µM. […] Dose response assays were performed in 12 point dilutions of 2-fold, typically beginning at 100µM. […] Reagents for Mpro assay were dispensed into the assay plate in 10µl volumes for a final volume of 20µL.
Mpro was pre-incubated for 15 minutes at room temperature with compound before addition of substrate and a further 30 minute incubation. Protease reaction was measured in a BMG Pherastar FS with a 480/520 ex/em filter set. Raw data was mapped and normalized to high (Protease with DMSO) and low (No Protease) controls using Genedata Screener software.

Structure (SMILES) | inhibition ([1]; 50.0 µM) | inhibition ([2]; 20.0 µM) | inhibition ([2]; 50.0 µM) | relative solubility at 20 uM | relative solubility at 100 uM | pIC50 [1] | inhibition ([1]; 20.0 µM) | pIC50 [2]
CCCN(CC1COc2ccccc2O1)C(=O)c1cc(=O)[nH]c2cc(F)ccc12 (configuration not stated) | 0% | 5.21% | 8.33% | 0.98 | 0.98 |  |  | 
O=C(CCl)N1CCN(S(=O)(=O)c2cccc(F)c2)CC1 | 96.8% | 97.3% | 104% | 1 | 1 | 5.69 | 96.6% | 5.34
C=CC(=O)N(c1ccc(C(C)(C)C)cc1)C(C(=O)Nc1ccc(OC)cc1OC)c1cccnc1 (configuration not stated) | 45.9% | 48.9% | 41.6% | 0.98 | 0.84 |  | 5.03% | 
O=C(NC1CCCCC1NC(=O)C1CCCCC1)c1ccncc1 (configuration not stated) |  | -14.4% | -20.6% | 1 | 1 |  | 0% | 
CC(C)[C@@H](C#N)NS(=O)(=O)c1ccc(CF)cc1 (stereo in doubt) | 22.1% |  | -14% | 1 | 1 |  | 1.55% | 
CCN(CC1COc2ccccc2O1)C(=O)c1cc(=O)[nH]c2ccc([N+](=O)[O-])cc12 (configuration not stated) | 0% | 2.87% | -7.35% | 1 | 1 |  |  | 
O=C(Cc1c[nH]c2ncccc12)Nc1cccc(Cl)c1 |  | 5.95% | 9.34% | 0.99 | 0.97 |  | 0% | 
C=CC(=O)N(c1ccc2cc[nH]c2c1)C(C(=O)NC(C)(C)C)c1cccnc1 (configuration not stated) |  | 5.38% | 10.5% | 0.84 | 0.93 |  | 0% | 
C=CC(=O)N(c1ccc(C(C)(C)C)cc1)C(C(=O)Nc1ccc(F)cc1)c1cccnc1 (configuration not stated) | 31.9% | 17% | 36% | 0.98 | 0.86 |  | 8.55% | 
CCN1CCN(Cc2ccccc2CNC(=O)[C@@]2(C)CCN2C(=O)OC(C)(C)C)CC1 (stereo in doubt) | 13.2% | -6.3% | -0.697% | 1 | 1 |  |  | 
O=C(CCl)N1CCN(Cc2cccc(Cl)c2)C[C@@H]1Cc1ccccc1 (stereo in doubt) | 66.6% | 22.5% | 45.2% | 0.97 | 0.92 | 4.72 |  | 
CC1CN(Cc2cccc(Cl)c2)CCN1C(=O)CCl (configuration not stated) | 100% | 88.3% | 93.9% | 0.99 | 0.99 | 5.68 | 94.6% | 
N#Cc1ccc(NC(=O)Nc2cccnc2)cc1 |  | 5.82% | 11.6% | 1 | 1 |  | 0% | 
C=CC(=O)N(c1ccc(C2(C)CC2)cc1)C(C(=O)Nc1cccc(CC)c1)c1cccnc1 (configuration not stated) | 47.2% |  | 21% | 0.86 | 0.65 |  | 4.53% | 
C=CC(=O)N(c1ccc(C(C)OC)cc1)C(C(=O)Nc1ccc(OC)cc1C)c1cccnc1 (configuration not stated) |  | 2.91% | 6.9% | 0.99 | 0.97 |  | 0% | 
Nc1ncncc1CNC(=O)Nc1ccccc1OCCn1ccnc1 | 9.19% |  | 15.8% | 1 | 1 |  | 1.47% | 
CS(=O)(=O)Nc1cccc(C(=O)OCC(=O)Nc2cccc(N3CCCC3=O)c2)c1 | 0% | 5.16% | 3.7% | 0.98 | 0.99 |  |  | 
O=C(C1CCN(S(=O)(=O)c2ccccc2)CC1)N1CCOCC1 | 0% | 1.87% | 5.52% | 1 | 0.99 |  | 0% | 
C=CC(=O)N1CCN(Cc2c[nH]c3ccc(C#N)cc23)CC1 | 0% | -36.2% | -27.1% | 0.97 | 0.92 |  | 0% | 
O=C1C(=O)N(Cc2ccc(Br)cc2)c2ccccc21 | 100% | -3.27% | 0.439% | 1.01 | 0.9 | 6.13 |  | 
O=C(Nc1ccccc1OC1CCN(Cc2ccccc2)CC1)C1CCN(C(=O)CCl)CC1 | -1.57% | 6.3% | 16.5% | 0.94 | 0.95 |  |  | 
NS(=O)(=O)c1ccc(N2CCC([C@@H]3CCCO3)CC2)cc1 (stereo in doubt) | 52.2% |  | -16% | 0.99 | 1 |  | 35% | 
O=C(NCC1COc2ccccc2O1)c1cc(=O)[nH]c2cc(F)ccc12 (configuration not stated) | 3.98% | -0.372% | -2.5% | 0.98 | 0.62 |  |  | 
CS(=O)(=O)N(CCc1ccccc1)CC1CCN(C(=O)CCl)CC1 | 73.3% | 23.9% | 26.1% | 0.96 | 0.89 |  |  | 
O=C(CCl)N1CCN(Cc2cccc(CNC(=O)N3CCOCC3)c2)CC1 | 95.6% | 11.7% | 32.4% | 1 | 1 | 4.30 |  | 
NS(=O)(=O)c1ccc(N2CCC(c3ccncc3)CC2)cc1 | 1.84% | 0.875% | 1.65% | 1 | 0.94 |  | 1.05% | 
Cn1cc(S(N)(=O)=O)cc1CC(=O)Nc1cccc(C(=O)NCc2ccccn2)c1 | 0% | -21.5% | -0.596% | 1 | 1 |  |  | 

Structure (SMILES) | inhibition ([1]; 50.0 µM) | inhibition ([2]; 20.0 µM) | inhibition ([2]; 50.0 µM) | relative solubility at 20 uM | relative solubility at 100 uM | pIC50 [1] | inhibition ([1]; 20.0 µM) | pIC50 [2]
COc1ccnc(NC(=O)Cc2ccc3ccccc3c2)c1 | 17.1% | 3.47% | 6.09% | 0.95 | 0.91 |  | 0% | 
CC(Cl)C(=O)N1CCC(C(=O)N2CCCCC2)CC1 (configuration not stated) | 0% | -11.9% | -27% | 0.99 | 1 |  | 0% | 
C=CC(=O)N(C1CCC2(CCCC2)CC1)C(C(=O)NC(C)(C)C)c1cccnc1 (configuration not stated) |  | -5.6% | 6.94% | 1 | 0.97 |  | 0% | 
Cc1cccc(CC(=O)Nc2cccnc2C#N)c1 |  | 8.4% | -5.94% | 1 | 1 |  | 0% | 
Cc1nnc(NC(=O)Cc2cccc(Cl)c2F)n1C | 0% | -12.7% | -10.8% | 1.01 | 1 |  |  | 
O=C(Cc1ccc(Cl)s1)Nc1cccnc1 |  | 0.922% | 11.5% | 1 | 1 |  | 0% | 
C[C@H](NC(=O)[C@@H](C)c1ccc(F)c(F)c1)c1cccc(F)c1 (stereo in doubt) | 0% |  | -31.4% | 1 | 0.79 |  | 0% | 
Cc1ccncc1NC(=O)C12CC(CO1)C2 | 0% | -0.804% | 12.2% | 1 | 1 |  |  | 
Cc1ccncc1NC(=O)C(C)(C)c1cccc(Cl)c1 | 66.9% | 49.3% | 68% | 1 | 1 | 4.61 |  | 
Cc1ccccc1C(C(=O)NCC(O)Cn1ccnn1)c1ccccc1 (configuration not stated) |  | 0.424% | 4.24% | 1 | 1.01 |  | 0% | 
C=CC(=O)N(c1ccc(C(C)(C)C)cc1)C(C(=O)NCCc1cccc(F)c1)c1cncc(Cl)c1 (configuration not stated) | 60.6% | 24.2% | 57.9% | 0.71 | 0.32 | 5.68 |  | 
O=C(NCc1cncs1)Nc1cccc(N2CCOCC2)c1 | 23.8% | 5.65% | 13.6% | 1 | 1.01 |  | 0.672% | 
Cc1ccc(NC(=O)Cc2cccc(Cl)c2)cn1 | 0% | 0.36% | 3.35% | 0.99 | 1 |  |  | 
Cc1ccncc1NC(=O)Cc1cccc(C(N)=O)c1 | 0.535% | 2.66% | -5.83% | 1.01 | 1.01 |  |  | 
C=CC(=O)N(C(C(=O)NC(C)(C)C)c1cccnc1)[C@@H]1C[C@@H]1c1ccccc1 (stereo in doubt) |  | -14.4% | -6.46% | 0.97 | 0.88 |  | 0% | 
CC(=O)N1CCN(S(=O)(=O)c2ccsc2)CC1 | 3.62% |  | -20.6% | 0.99 | 1 |  | 0% | 
O=C(Nc1nncn1C1CC1)C1CCOc2ccc(Cl)cc21 (configuration not stated) | 1.9% | 46.7% | 54.6% | 1 | 1 |  |  | 6.22
Cc1nnc(NC(=O)Nc2cccnc2)s1 | 8.86% | 1.19% | 7.32% | 1 | 0.99 |  | 4.62% | 
CC(=O)NCCc1cn(CC(=O)N2CCOCC2)c2ccccc12 | 0% |  | 6.56% | 0.97 | 0.96 |  | 0% | 
Cc1ccc(S(=O)(=O)N2CCN(C(=O)c3cc(=O)[nH]c4cc(F)ccc34)CC2)c(C)c1 | 11.4% | 21.8% | 48.1% | 1 | 0.92 |  |  | 
N#Cc1ccc(O)c(NC(=O)Cc2cccnc2)c1 | 0% | -15.4% | -8.48% | 1 | 0.95 |  |  | 
CC(=O)N[C@@H](Cc1ccc(O)cc1)C(=O)NC(CN1CCN(C(=O)CCl)CC1)c1ccccc1 (stereo in doubt) | 31.1% | 21.3% | 41.2% | 0.99 | 1 |  |  | 
CC(=O)N1CCN(C(=O)Cc2ccccn2)CC1 | 0% | -0.517% | 3.52% | 1 | 1 |  | 0% | 
Cc1ccncc1NS(=O)(=O)Cc1cccc(Cl)c1 | 19% | 4.3% | 9.77% | 1 | 0.99 |  |  | 
O=C(Cc1cccc(Cl)c1)Nc1cnccn1 | 0% | 3.71% | 13.3% | 1.01 | 1 |  |  | 
C=CC(=O)N(c1ccc(C(C)(C)C)cc1)C(C(=O)NC1CCOCC1)c1cccnc1 (configuration not stated) | 31.1% | 9.01% | 0.668% | 0.99 | 1 |  | 0.841% | 
Cc1cnn(C)c1NC(=O)Cc1cccc(Cl)c1 | 23.1% | 3.11% | 5.06% | 0.99 | 0.99 |  |  | 
